In patent US6335355B1, “Crop protection products” (Syngenta Investment Corporation, priority 1995, dated 2002):
Read-outs that look alike come from different tables or passages of the source.

Legend:
[1] = system: Colletotrichum lagenarium; experiment: Action against Colletotrichum lagenarium on Cucumis sativus L./soil application; type: in vivo
[2] = system: Colletotrichum lagenarium; experiment: Action against Colletotrichum lagenarium on Cucumis sativus L./foliar application; type: in vivo
Erysiphe graminis = experiment: Action against Erysiphe graminis on barley
Description: A1: Action gainst Erysiphe graminis on Barley
a) Residual-protective Action Barley plants about 8 cm in height are sprayed to drip point with an aqueous spray mixture (max. 0.02% active ingredient) and are dusted 3 to 4 days later with conidia of the fungus. The infected plants are stood in a greenhouse at 22°. Fungus infestation is generally evaluated 10 days after infection.
b) Systemic Action Barley plants about 8 cm in height are watered with an aqueous spray mixture (max. 0.002% active ingredient, based on the volume of the soil). […] The plants are dusted with conidia of the fungus 3 to 4 days later. The infected plants are stood in a greenhouse at 22°. Fungus infestation is generally evaluated 10 days after infection.

[3] = Field test on chilli: action on crop yield; type: in vivo; conditions: Example B10, chillis harvested after the sixth spraying
Cercospora nicotianae = experiment: Action against Cercospora nicotianae on tobacco plants; type: in vivo
Pyricularia oryzae = type: in vivo; conditions: Example B11
[4] = system: Cercospora sp. (leaf spot); experiment: Field test on chilli: action against Cercospora sp. (leaf spot)
Excerpt: In a plot of land about 10 m^2 (test location: Cikampek, Java, Indonesia), chilli plants are sprayed a total of 7 times at intervals of about 7 days with 500-700 litres of spray mixture per hectare. Three days after the first spraying, the plants are infected artificially with the fungus.
Evaluation is made by assessing infestation on the leaves after the sixth spraying.

[5] = Example B3(b), 0.2 mg a.i. per liter (ppm)
[6] = Example B3(a), 0.06 mg a.i. per liter (ppm)
[7] = Example B3(a), 0.2 mg a.i. per liter (ppm)
[8] = Example B1, 0.6 mg a.i. per liter (ppm)
[9] = Example B1, 2 mg a.i. per liter (ppm)
[10] = Example B1, 6 mg a.i. per liter (ppm)
[11] = Example B9(b), 0.02 mg a.i. per liter (ppm)
[12] = Example B9(b), 0.06 mg a.i. per liter (ppm)
[13] = Example B9(a), 6 mg a.i. per liter (ppm)
[14] = Example B5, 2 mg a.i. per liter (ppm)
[15] = Example B5, 6 mg a.i. per liter (ppm)
[16] = Example B7, 2 mg a.i. per liter (ppm)
[17] = Example B7, 6 mg a.i. per liter (ppm)

O=C(O)c1cccc2nnsc12 [compound IA, benzothiadiazole-7-carboxylic acid]
% action O (found) ([1]; Example B3(b), 0.006 mg a.i. per liter (ppm)): 0% | % action O (found) ([1]; Example B3(b), 0.02 mg a.i. per liter (ppm)): 40% | % action O (found) ([1]; Example B3(b), 0.06 mg a.i. per liter (ppm)): 49% | % action O (found) [1, 5]: 91% | % action O (found) [2, 6]: 0% | % action O (found) [2, 7]: 5% | % action O (found) ([2]; Example B3(a), 2 mg a.i. per liter (ppm)): 22% | % action O (found) ([2]; Example B4, 0.2 mg a.i. per liter (ppm)): 3% | % action O (found) ([2]; Example B4, 0.6 mg a.i. per liter (ppm)): 51% | % action O (found) (Erysiphe graminis; [8]): 0% | % action O (found) (Erysiphe graminis; [9]): 40% | % action O (found) (Erysiphe graminis; [10]): 89% | % action O (found) (Erysiphe graminis; Example B2, 0.6 mg a.i. per liter (ppm)): 14% | % action O (found) (Erysiphe graminis; Example B2, 2 mg a.i. per liter (ppm)): 27%

CSC(=O)c1cccc2nnsc12 [compound ID, benzothiadiazole-7-carboxylic acid thiomethyl ester]
% action O (found) ([1]; Example B9(b), 0.006 mg a.i. per liter (ppm)): 0% | % action O (found) [1, 11]: 6% | % action O (found) [1, 12]: 23% | % action O (found) ([1]; Example B9(b), 0.2 mg a.i. per liter (ppm)): 36% | % action O (found) ([2]; Example B9(a), 0.06 mg a.i. per liter (ppm)): 16% | % action O (found) ([2]; Example B9(a), 0.2 mg a.i. per liter (ppm)): 22% | % action O (found) [2, 13]: 60% | Action on crop yield, % action O (found) ([3]; 5 mg a.i. per liter (ppm)): 459% | % action O (found) (Cercospora nicotianae; Example B5, 0.2 mg a.i. per liter (ppm)): 0% | % action O (found) (Cercospora nicotianae; [14]): 17% | % action O (found) (Cercospora nicotianae; [15]): 55% | % action O (found) (Cercospora nicotianae; Example B5, 20 mg a.i. per liter (ppm)): 78% | % action O (found) (Cercospora nicotianae; Example B7, 0.2 mg a.i. per liter (ppm)): 0% | % action O (found) (Cercospora nicotianae; [16]): 17% | % action O (found) (Cercospora nicotianae; [17]): 55% | % action O (found) (Cercospora nicotianae; Example B7, 20 mg a.i. per liter (ppm)): 78% | % action O (found) (Erysiphe graminis; Example B8, 0.6 mg a.i. per liter (ppm)): 0% | % action O (found) (Erysiphe graminis; Example B8, 2 mg a.i. per liter (ppm)): 33% | % action O (found) (Pyricularia oryzae; 6 mg a.i. per liter (ppm)): 15% | % action O (found) ([4]; Example B10, 5 mg a.i. per liter (ppm)): 76%

CC(C)(C)C(O)(CCc1ccc(Cl)cc1)Cn1cncn1 (stereo not drawn) [compound IIA, α-[2-(4-chlorophenyl)ethyl]-α-(1,1-dimethylethyl)-1H-1,2,4-trazole-1-ethanol]
% action O (found) (Cercospora nicotianae; [14]): 0% | % action O (found) (Cercospora nicotianae; [15]): 0%

CC(C1CC1)C(O)(Cn1cncn1)c1ccc(Cl)cc1 (stereo not drawn) [compound IIC, α-(4-chlorophenyl)-α-(1-cyclopropylethyl)-1H-1,2,4-triazole-1-ethanol]
% action O (found) (Cercospora nicotianae; [16]): 0% | % action O (found) (Cercospora nicotianae; [17]): 0% | % action O (found) (Erysiphe graminis; Example B8, 6 mg a.i. per liter (ppm)): 17% | % action O (found) (Erysiphe graminis; Example B8, 20 mg a.i. per liter (ppm)): 33% | % action O (found) (Erysiphe graminis; Example B8, 60 mg a.i. per liter (ppm)): 50%

CC1(C)CCC(Cc2ccc(Cl)cc2)C1(O)Cn1cncn1 (stereo not shown) [compound IID, 5-(4-chlorobenzyl)-2,2-dimethyl-1-(1H-1,2,4-triazol-1-ylmethyl)-cyclopentanol]
% action O (found) (Erysiphe graminis; [8]): 10% | % action O (found) (Erysiphe graminis; [9]): 40% | % action O (found) (Erysiphe graminis; [10]): 51% | % action O (found) (Erysiphe graminis; Example B1, 20 mg a.i. per liter (ppm)): 65%

CO/C=C(/C(=O)OC)c1ccccc1Oc1cc(Oc2ccccc2C#N)ncn1 [compound IIF, methyl-(E)-2-{2-[6-(2-cyanophenoxy)pyrimidin4-yloxy]phenyl}-3-methoxyacrylate]
% action O (found) [1, 5]: 0% | % action O (found) ([1]; Example B3(b), 0.6 mg a.i. per liter (ppm)): 9% | % action O (found) ([1]; Example B3(b), 2 mg a.i. per liter (ppm)): 28% | % action O (found) ([1]; Example B3(b), 6 mg a.i. per liter (ppm)): 66% | % action O (found) [1, 11]: 1% | % action O (found) [1, 12]: 5% | % action O (found) ([1]; Example B9(b), 0.6 mg a.i. per liter (ppm)): 27% | % action O (found) ([1]; Example B9(b), 2 mg a.i. per liter (ppm)): 61% | % action O (found) ([1]; Example B9(b), 6 mg a.i. per liter (ppm)): 93% | % action O (found) [2, 6]: 5% | % action O (found) [2, 7]: 9% | % action O (found) ([2]; Example B3(a), 0.6 mg a.i. per liter (ppm)): 12% | % action O (found) ([2]; Example B3(a), 6 mg a.i. per liter (ppm)): 17% | % action O (found) ([2]; Example B9(a), 2 mg a.i. per liter (ppm)): 18% | % action O (found) [2, 13]: 75%

CO/N=C(/C(=O)OC)c1ccccc1COc1ccccc1C [compound IIG, methyl-(E)-2-methoximino-2-[α-(o-tolyloxy)-o-tolyl]acetate]
% action O (found) ([2]; Example B4, 2 mg a.i. per liter (ppm)): 0% | % action O (found) ([2]; Example B4, 20 mg a.i. per liter (ppm)): 41%

CCC1(C(=O)NC(C)c2ccc(Cl)cc2)C(C)C1(Cl)Cl [compound IIK, (1R,3S/1S,3R)-2,2-dichloro-N-[(R)-1-(4-chlorophenyl)ethyl]-1-ethyl-3-methylcyclo-propanecarboxamide]
% action O (found) (Pyricularia oryzae; 0.02 mg a.i. per liter (ppm)): 0% | % action O (found) (Pyricularia oryzae; 0.06 mg a.i. per liter (ppm)): 28% | % action O (found) (Pyricularia oryzae; 0.2 mg a.i. per liter (ppm)): 47% | % action O (found) (Pyricularia oryzae; 0.6 mg a.i. per liter (ppm)): 79% | % action O (found) (Pyricularia oryzae; 2 mg a.i. per liter (ppm)): 83% | % action O (found) (Pyricularia oryzae; 6 mg a.i. per liter (ppm)): 91%

manganese ethylenebis (dithiocarbamate) polymer-zinc complex [compound IIL]
Action on crop yield, % action O (found) ([3]; 100 mg a.i. per liter (ppm)): 8% | % action O (found) ([4]; Example B10, 100 mg a.i. per liter (ppm)): 8%
